# Source: US4080442A, “Disaccharide derivatives used in the treatment of hepatic diseases” (Meito Sangyo Kabushiki Kaisha, priority 1975, dated 1978)
# Test system: experimental hepatitis induced by D-galactosamin
# Assay: Conjoint use of glutathione in experimental hepatitis induced by D-galactosamin
# Format: in vivo, female Wistar rats
# Conditions: GSH 5 mg/rat, GSSH 5 mg/rat, AS 75 mg/rat, mixtures: GSH or GSSH 5 mg/rat + AS 75 mg/rat, average value ± S.E.
# Description: Groups each of 10 female Wistar rats of 100 - 120 gram body weight put on a fast of 2 hours prior to the experiment were used. […] One hour after these administrations, all of the groups were administered with D-galactosamin. The administration of the D-galactosamin was performed in the following manner. […] After completion of this administration, the fasted state was continued. Twenty-two hours after the administration of the D-galactosaminhydrochloride, blood was taken from the abdominal aorta and measured for the GOT, GPT, bilirubin and blood glucose contained in the blood plasma. The GOT and GPT were measured by the Reitman-Frankel Method, the bilirubin by the Evelyn-Malloy Method and the blood glucose by the […].
# The effects obtained by using injection mixtures of either a reduced type glutathione or an oxidized type glutathione and a sucrose derivative obtained by the method of preparing a pharmaceutical composition of the hereinafter-given Example 11 in treating animals suffering from hepatitis induced by D-galactosamin were tested by operating as in I., above.
structure (smiles),measurement,setting,value
"N[C@@H](CCC(=O)N[C@@H](CS)C(=O)NCC(=O)O)C(=O)O [GSH, Reduced type glutathione]",GPT,control 1830±432,1660±472 Karman U.
same,GOT,control 2748±490,2510±510 Karmen U.
